Test system: Z. mobilis strain 8b
Conditions: fermentation medium pH 6.0, 30° C., 150 rpm; supplemented with 6 g/L acetamide or 7.2 g/L acetic acid vs unsupplemented control; FIG. 1
Text: Fermentation medium was composed of 10 g/L yeast extract, 2 g/L KH2PO4, 70 g/L glucose, 40 g/L xylose and 0.1 M MES buffer.

| SMILES | final density / cell yield (as measured by dry cell mass) of Z. mobilis | growth rate of Z. mobilis |
| --- | --- | --- |
| CC(N)=O [acetamide] | no influence | no influence |
| CC(=O)O [acetic acid] |  | reduced growth rate |
